Experimental data from patent publication US10125121B2, “FYN kinase inhibitors” (ROTTAPHARM BIOTECH S.R.L., priority 2015, dated 2018).

Target: active FYN (human recombinant, 62.7 kDa) (Homo sapiens, UniProt P06241)
Test: In vitro kinase assay (Z′-LYTE FRET)
Assay type: biochemical
Conditions: read-out: IC50(nM) FYN INHIBITION
Experimental: Assays to determine the kinase inhibitory activity of compounds were performed using an automatic liquid handling device (Microlab STAR Hamilton) and Z′-LYTE™ Kinase Assay Platform, a Fluorescence Resonance Energy Transfer (FRET)-based assay platform compatible with high-throughput screening (HTS) applications. The assay employs a fluorescence-based, coupled-enzyme format and utilizes the differential sensitivity of phosphorylated and non-phosphorylated peptides to proteolytic cleavage.
All reagents were diluted in reaction buffer and the kinase reaction was carried out in a total volume of 10 μl, for 60 minutes at 25° C. The 0% Phosphorylation (i.e. no ATP) and 100% Phosphorylation (i.e. synthetically phosphorylated peptide supplied) Assay Controls, included in each plate, allowed to calculate the percent phosphorylation achieved in the specific reaction well. The 0% Inhibition and 0% Phosphorylation (i.e. 100% Inhibition) Controls define the dynamic range in the screen. At the end of incubation, a secondary reaction (the Development Reaction) started by adding 5 μl of Development Reagent, containing a site-specific protease that recognizes and cleaves non-phosphorylated peptides, and was interrupted after 60 minutes with 5 μl/sample of Stop Reagent.
The compounds were tested in a range of concentrations 10^−6-10^−9 M.
Results are expressed as percentage of inhibition and the IC50 values were calculated by non-linear curve fitting using GraphPad™ Prism software.

Chain of active FYN (human recombinant, 62.7 kDa) (P06241 whole entry): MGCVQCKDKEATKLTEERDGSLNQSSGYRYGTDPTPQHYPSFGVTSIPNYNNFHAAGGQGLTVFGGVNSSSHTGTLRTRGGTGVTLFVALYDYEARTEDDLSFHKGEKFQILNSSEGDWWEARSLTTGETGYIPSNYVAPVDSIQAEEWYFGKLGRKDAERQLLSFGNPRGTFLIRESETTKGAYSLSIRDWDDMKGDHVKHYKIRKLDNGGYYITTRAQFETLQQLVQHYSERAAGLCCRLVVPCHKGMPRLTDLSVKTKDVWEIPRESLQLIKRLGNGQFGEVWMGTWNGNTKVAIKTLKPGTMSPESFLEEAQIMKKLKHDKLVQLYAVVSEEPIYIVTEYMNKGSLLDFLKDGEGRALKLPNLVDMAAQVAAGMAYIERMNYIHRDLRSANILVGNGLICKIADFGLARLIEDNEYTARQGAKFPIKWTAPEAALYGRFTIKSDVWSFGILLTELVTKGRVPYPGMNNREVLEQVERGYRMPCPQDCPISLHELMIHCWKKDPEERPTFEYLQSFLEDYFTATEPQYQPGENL

| Structure (SMILES) | IC50 [nM] |
| --- | --- |
| COc1ncccc1C(=O)Nc1ccc(CN2CCN(c3nccc(Nc4cc(C5CC5)[nH]n4)n3)CC2)cc1 [Compound 28, N-(4-((4-(4-((5-cyclopropyl-1H-pyrazol-3-yl)amino)pyrimidin-2-yl)piperazin-1-yl)methyl)phenyl)-2-methoxy-nicotinamide] | 237 |
| COc1ccnc(Nc2ccnc(N3CCN(Cc4ccc(NC(=O)c5ccccc5C(F)(F)F)cc4)CC3)n2)c1 [Compound 45, N-(4-((4-(4-((4-methoxypyridin-2-yl)amino)pyrimidin-2-yl)piperazin-1-yl)methyl)phenyl)-2-(trifluoromethyl)benzamide] | 441 |
| Cc1nc(C(=O)Nc2ccc(CN3CCN(c4nccc(Nc5cc(C6CC6)[nH]n5)n4)CC3)nc2)c(C(F)(F)F)o1 [Compound 22, N-(6-((4-(4-((5-cyclopropyl-1H-pyrazol-3-yl)amino)pyrimidin-2-yl)piperazin-1-yl)methyl)pyridin-3-yl)-2-methyl-5-(trifluoromethyl)oxazole-4-carboxamide] | 424 |
| Cn1cc(C(=O)Nc2ccc(CN3CCN(c4nccc(Nc5cc(C6CC6)[nH]n5)n4)CC3)cc2)c(C(F)(F)F)n1 [Compound 33, N-(4-((4-(4-((5-cyclopropyl-1H-pyrazol-3-yl)amino)pyrimidin-2-yl)piperazin-1-yl)-methyl)phenyl)-1-methyl-3-(trifluoromethyl)-1H-pyrazole-4-carboxamide] | 74 |
| COc1ccccc1C(=O)Nc1ccc(CN2CCN(c3nccc(Nc4cc(C5CC5)[nH]n4)n3)CC2)cc1 [Compound 7, N-(4-((4-(4-((5-cyclopropyl-1H-pyrazol-3-yl)amino)pyrimidin-2-yl)piperazin-1-yl)methyl)phenyl)-2-methoxy-benzamide] | 150 |
| O=C(Nc1ccc(CN2CCN(c3nccc(Nc4cc(C5CC5)[nH]n4)n3)CC2)cc1)c1cccc(C(F)(F)F)c1 [Compound 9, N-(4-((4-(4-((5-cyclopropyl-1H-pyrazol-3-yl)amino)pyrimidin-2-yl)piperazin-1-yl)methyl)phenyl)-3-(trifluoromethyl)benzamide] | > 1000 |
| CS(=O)(=O)c1cccc(C(=O)Nc2ccc(CN3CCN(c4nccc(Nc5cc(C6CC6)[nH]n5)n4)CC3)cc2)c1 [Compound 16, N-(4-((4-(4-((5-cyclopropyl-1H-pyrazol-3-yl)amino)pyrimidin-2-yl)piperazin-1-yl)methyl)phenyl)-3-(methylsulfonyl)benzamide] | 122 |
| COc1cc(C)ccc1C(=O)Nc1ccc(CN2CCN(c3nccc(Nc4cc(C5CC5)[nH]n4)n3)CC2)cc1 [Compound 15, N-(4-((4-(4-((5-cyclopropyl-1H-pyrazol-3-yl)amino)pyrimidin-2-yl)piperazin-1-yl)methyl)phenyl)-2-methoxy-4-methyl benzamide] | 220 |
| O=C(Nc1ccc(CN2CCN(c3nccc(Nc4cc(C5CC5)[nH]n4)n3)CC2)cc1)c1ccccc1Cl [Compound 5, 2-chloro-N-(4-((4-(4-((5-cyclopropyl-1H-pyrazol-3-yl)amino)pyrimidin-2-yl)piperazin-1-yl)methyl)phenyl)benzamide] | 23 |
| Cc1cc(Nc2ccnc(N3CCN(Cc4ccc(NC(=O)c5ccccc5C(F)(F)F)cc4)CC3)n2)[nH]n1 [Compound 47, N-(4-((4-(4-((3-methyl-1H-pyrazol-5-yl)amino)pyrimidin-2-yl)piperazin-1-yl)methyl)phenyl)-2-(trifluoromethyl)benzamide] | 41 |
| O=C(Nc1ccc(CN2CCN(c3nccc(Nc4cc(C5CC5)[nH]n4)n3)CC2)cc1)c1ccccc1 [Compound 1, N-(4-((4-(4-((5-cyclopropyl-1H-pyrazol-3-yl)amino)pyrimidin-2-yl)piperazin-1-yl)methyl)phenyl)benzamide] | 96 |
| CC(C)c1ccccc1C(=O)Nc1ccc(CN2CCN(c3nccc(Nc4cc(C5CC5)[nH]n4)n3)CC2)cc1 [Compound 6, N-(4-((4-(4-((5-cyclopropyl-1H-pyrazol-3-yl)amino)pyrimidin-2-yl)piperazin-1-yl)methyl)phenyl)-2-isopropylbenzamide] | 89 |
